Results reported in US5219848A, “Cephem compounds” (ICI Pharma, priority 1989, dated 1993).

Key:
Type in all cases: cell-based
Parameters in all cases: unit not given here
Conditions in all cases: Isosensitest agar, 10^4 CFU/spot
Pr. morganii (A8433001) = experiment: MIC by agar-dilution, Pr. morganii (A8433001)
Source text: (§1) The following results were obtained for representative compounds on a standard in vitro test system using Isosensitest agar medium. The antibacterial activity is described in terms of the minimum inhibitory concentration (MlC) determined by the agar-dilution technique with an inoculum size of 10^4 CFU/spot.

[1] = system: Strep. pyogenes (A681018); experiment: MIC by agar-dilution, Strep. pyogenes (A681018)
Source text: as §1

[2] = system: St. aureus 147N (A8601052); experiment: MIC by agar-dilution, St. aureus 147N (A8601052)
Source text: as §1

[3] = system: Serr. marcesens (A8421003); experiment: MIC by agar-dilution, Serr. marcesens (A8421003)
Source text: as §1

Kleb. oxytoca (A8395055) = experiment: MIC by agar-dilution, Kleb. oxytoca (A8395055)
Source text: as §1

[4] = system: P. aeruginosa PU21 (A8101028); experiment: MIC by agar-dilution, P. aeruginosa PU21 (A8101028)
Source text: as §1

[5] = system: Ent. cloacae P99 (A8401054); experiment: MIC by agar-dilution, Ent. cloacae P99 (A8401054)
Source text: as §1

S. dublin (A8369001) = experiment: MIC by agar-dilution, S. dublin (A8369001)
Source text: as §1

E. coli DCO (A8341098) = experiment: MIC by agar-dilution, E. coli DCO (A8341098)
Source text: as §1

## 7-[2-(2-Aminothiazol-4-yl)-2-((Z)-1-carboxy-1-methylethoxyimino)acetamido]- 3-(8-bromo-6,7-dihydroxy-3-oxo-tetrahydroisoquinolin-2-ylmethyl)ceph-3-em-4-carboxylic acid [Example 8]
Pr. morganii (A8433001)
  MIC: 0.25
[1]
  MIC: 0.06
[2]
  MIC: 8
[3]
  MIC: 0.06
Kleb. oxytoca (A8395055)
  MIC: 0.015
[4]
  MIC: 0.008
[5]
  MIC: 0.125
S. dublin (A8369001)
  MIC: 0.03
E. coli DCO (A8341098)
  MIC: 0.008
